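Cells were grown in 96-well plates and exposed to each compound for 48 hours at five concentrations; endpoints were interpolated linearly between bracketing concentrations, or set to the highest concentration if not reached. Abbreviation: GI50, concentration required for 50% inhibition of growth. TGI marks complete inhibition of growth.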
Tests used:
Assay in all cases: NCI anticancer screen, dose series, 48 h
OVCAR-5 ovarian = tested on: OVCAR-5 ovarian
MOLT-4 leukemia = tested on: MOLT-4 leukemia
HS 578T breast = tested on: HS 578T breast
TK-10 renal = tested on: TK-10 renal
NCI-H522 lung = tested on: NCI-H522 lung
MDA-MB-435 = tested on: MDA-MB-435
RXF 393 renal = tested on: RXF 393 renal
NCI-H23 lung = tested on: NCI-H23 lung
HOP-62 NSCLC = tested on: HOP-62 NSCLC
KM12 colon = tested on: KM12 colon
HCT-15 colon = tested on: HCT-15 colon
MCF7 breast = tested on: MCF7 breast
OVCAR-4 ovarian = tested on: OVCAR-4 ovarian
SK-MEL-28 melanoma = tested on: SK-MEL-28 melanoma
EKVX NSCLC = tested on: EKVX NSCLC
BT-549 breast = tested on: BT-549 breast
OVCAR-8 ovarian = tested on: OVCAR-8 ovarian
NCI-H226 lung = tested on: NCI-H226 lung
RPMI-8226 leukemia = tested on: RPMI-8226 leukemia
IGROV1 ovarian = tested on: IGROV1 ovarian
UACC-257 melanoma = tested on: UACC-257 melanoma
SW-620 colon = tested on: SW-620 colon
M14 melanoma = tested on: M14 melanoma
ACHN renal = tested on: ACHN renal
MALME-3M melanoma = tested on: MALME-3M melanoma
UACC-62 melanoma = tested on: UACC-62 melanoma
HCC-2998 colon = tested on: HCC-2998 colon
NCI-H460 lung = tested on: NCI-H460 lung
SR leukemia = tested on: SR leukemia
MDA-MB-231 breast = tested on: MDA-MB-231 breast
SNB-19 CNS = tested on: SNB-19 CNS
T-47D breast = tested on: T-47D breast
SK-OV-3 ovarian = tested on: SK-OV-3 ovarian
HT29 colon = tested on: HT29 colon
CCRF-CEM leukemia = tested on: CCRF-CEM leukemia
DU-145 prostate = tested on: DU-145 prostate
SF-539 CNS = tested on: SF-539 CNS
SN12C renal = tested on: SN12C renal
SNB-75 CNS = tested on: SNB-75 CNS
SK-MEL-5 melanoma = tested on: SK-MEL-5 melanoma
UO-31 renal = tested on: UO-31 renal
HL-60(TB) leukemia = tested on: HL-60(TB) leukemia
A549 NSCLC = tested on: A549 NSCLC
LOX IMVI melanoma = tested on: LOX IMVI melanoma
PC-3 prostate = tested on: PC-3 prostate
A498 renal = tested on: A498 renal
HCT-116 colon = tested on: HCT-116 colon
NCI/ADR-RES ovarian = tested on: NCI/ADR-RES ovarian
U251 CNS = tested on: U251 CNS
K-562 leukemia = tested on: K-562 leukemia
HOP-92 NSCLC = tested on: HOP-92 NSCLC
OVCAR-3 ovarian = tested on: OVCAR-3 ovarian
CAKI-1 renal = tested on: CAKI-1 renal
COLO 205 colon = tested on: COLO 205 colon
SF-295 CNS = tested on: SF-295 CNS
SF-268 CNS = tested on: SF-268 CNS
SK-MEL-2 melanoma = tested on: SK-MEL-2 melanoma
786-0 renal = tested on: 786-0 renal

`CC1=C(CNO)C2=C(C)C3(CC3)[C@@](C)(O)C(=O)C2=C1` gave a GI50 (OVCAR-5 ovarian) of 1.4 µM, a TGI (OVCAR-5 ovarian) of 17.4 µM and a GI50 (MOLT-4 leukemia) of 3.72 µM. For the same molecule, the TGI (MOLT-4 leukemia) was greater than 100 µM, the GI50 (HS 578T breast) was 2.7 µM and the TGI (HS 578T breast) was 9.18 µM. The GI50 (TK-10 renal) was 3.24 µM, the TGI (TK-10 renal) was 8.4 µM and the GI50 (NCI-H522 lung) was 0.679 µM. It also gave a TGI (NCI-H522 lung) of 5.25 µM, a GI50 (MDA-MB-435) of 11.4 µM and a TGI (MDA-MB-435) of 39 µM. The GI50 (RXF 393 renal) was 0.726 µM, the TGI (RXF 393 renal) was 2.41 µM and the GI50 (NCI-H23 lung) was 0.473 µM. The TGI (NCI-H23 lung) was 2.72 µM, the GI50 (HOP-62 NSCLC) was 0.61 µM and the TGI (HOP-62 NSCLC) was 4.57 µM. It also gave a GI50 (KM12 colon) of 3.72 µM, a TGI (KM12 colon) of 27.4 µM and a GI50 (HCT-15 colon) of 1.71 µM. The TGI (HCT-15 colon) was 4.99 µM, the GI50 (MCF7 breast) was 0.763 µM and the TGI (MCF7 breast) was 6.73 µM. The GI50 (OVCAR-4 ovarian) was 2.1 µM, the TGI (OVCAR-4 ovarian) was 7.06 µM and the GI50 (SK-MEL-28 melanoma) was 2.37 µM. The TGI (SK-MEL-28 melanoma) was 6.05 µM, the GI50 (EKVX NSCLC) was 2.22 µM and the TGI (EKVX NSCLC) was 5.98 µM. For the same molecule, the GI50 (BT-549 breast) was 1.24 µM, the TGI (BT-549 breast) was 3.6 µM and the GI50 (OVCAR-8 ovarian) was 2.28 µM. It also gave a TGI (OVCAR-8 ovarian) of 36 µM, a GI50 (NCI-H226 lung) of 1.83 µM and a TGI (NCI-H226 lung) of 4.79 µM. For the same molecule, the GI50 (RPMI-8226 leukemia) was 21.1 µM, the TGI (RPMI-8226 leukemia) was 72.9 µM and the GI50 (IGROV1 ovarian) was 0.898 µM. For the same molecule, the TGI (IGROV1 ovarian) was 7 µM, the GI50 (UACC-257 melanoma) was 2.78 µM and the TGI (UACC-257 melanoma) was 7.64 µM. It also gave a GI50 (SW-620 colon) of 4.54 µM, a TGI (SW-620 colon) greater than 100 µM and a GI50 (M14 melanoma) of 1.92 µM. For the same molecule, the TGI (M14 melanoma) was 5.04 µM, the GI50 (ACHN renal) was 2.25 µM and the TGI (ACHN renal) was 7.6 µM. It also gave a GI50 (MALME-3M melanoma) of 1.81 µM, a TGI (MALME-3M melanoma) of 3.71 µM and a GI50 (UACC-62 melanoma) of 1.8 µM. For the same molecule, the TGI (UACC-62 melanoma) was 3.73 µM, the GI50 (HCC-2998 colon) was 1.5 µM and the TGI (HCC-2998 colon) was 3.76 µM. The GI50 (NCI-H460 lung) was 0.358 µM, the TGI (NCI-H460 lung) was 3.87 µM and the GI50 (SR leukemia) was 4.49 µM. It also gave a TGI (SR leukemia) greater than 100 µM, a GI50 (MDA-MB-231 breast) of 2.03 µM and a TGI (MDA-MB-231 breast) of 7.14 µM. The GI50 (SNB-19 CNS) was 1.81 µM, the TGI (SNB-19 CNS) was 25.5 µM and the GI50 (T-47D breast) was 1.21 µM. It also gave a TGI (T-47D breast) of 8.47 µM, a GI50 (SK-OV-3 ovarian) of 1.13 µM and a TGI (SK-OV-3 ovarian) of 5.22 µM. The GI50 (HT29 colon) was 2.34 µM, the TGI (HT29 colon) was 58.8 µM and the GI50 (CCRF-CEM leukemia) was 6.6 µM. For the same molecule, the TGI (CCRF-CEM leukemia) was 60.6 µM, the GI50 (DU-145 prostate) was 0.375 µM and the TGI (DU-145 prostate) was 5.5 µM. It also gave a GI50 (SF-539 CNS) of 1.64 µM, a TGI (SF-539 CNS) of 5.03 µM and a GI50 (SN12C renal) of 2.77 µM. For the same molecule, the TGI (SN12C renal) was greater than 100 µM, the GI50 (SNB-75 CNS) was 1.38 µM and the TGI (SNB-75 CNS) was 2.86 µM. For the same molecule, the GI50 (SK-MEL-5 melanoma) was 1.68 µM, the TGI (SK-MEL-5 melanoma) was 3.22 µM and the GI50 (UO-31 renal) was 1.83 µM. The TGI (UO-31 renal) was 5.87 µM, the GI50 (HL-60(TB) leukemia) was 2.77 µM and the TGI (HL-60(TB) leukemia) was 30.7 µM. For the same molecule, the GI50 (A549 NSCLC) was 1.17 µM, the TGI (A549 NSCLC) was 17.6 µM and the GI50 (LOX IMVI melanoma) was 3.44 µM. For the same molecule, the TGI (LOX IMVI melanoma) was 19 µM, the GI50 (PC-3 prostate) was 1.91 µM and the TGI (PC-3 prostate) was 19.6 µM. The GI50 (A498 renal) was 1.6 µM, the TGI (A498 renal) was 3.28 µM and the GI50 (HCT-116 colon) was 1.85 µM. For the same molecule, the TGI (HCT-116 colon) was 5.21 µM, the GI50 (NCI/ADR-RES ovarian) was 2.32 µM and the TGI (NCI/ADR-RES ovarian) was 7.63 µM. It also gave a GI50 (U251 CNS) of 2.39 µM, a TGI (U251 CNS) greater than 100 µM and a GI50 (K-562 leukemia) of 11.9 µM. For the same molecule, the TGI (K-562 leukemia) was greater than 100 µM, the GI50 (HOP-92 NSCLC) was 1.12 µM and the TGI (HOP-92 NSCLC) was 4.62 µM. The GI50 (OVCAR-3 ovarian) was 1.49 µM, the TGI (OVCAR-3 ovarian) was 6.26 µM and the GI50 (CAKI-1 renal) was 1.66 µM. The TGI (CAKI-1 renal) was 7.07 µM, the GI50 (COLO 205 colon) was 1.09 µM and the TGI (COLO 205 colon) was 3.83 µM. For the same molecule, the GI50 (SF-295 CNS) was 0.982 µM, the TGI (SF-295 CNS) was 4.42 µM and the GI50 (SF-268 CNS) was 0.766 µM. For the same molecule, the TGI (SF-268 CNS) was 9.89 µM, the GI50 (SK-MEL-2 melanoma) was 1.98 µM and the TGI (SK-MEL-2 melanoma) was 4.91 µM. For the same molecule, the GI50 (786-0 renal) was 2.53 µM and the TGI (786-0 renal) was 6.88 µM.
